Measurements as given in patent publication US7553853B2, “Solid-state montelukast” (Synthon BV, priority 2003, dated 2009).

Assays:
[1] = Hygroscopicity as stated in the description; format: physicochemical; settings: solid state
[2] = Hygroscopicity of montelukast acid (water content by Karl Fisher apparatus after exposure); format: physicochemical
Method: Montelukast acid (50 mg) from Example 2 was exposed to air overnight. The water content was then determined to be 0.07 wt % using a Karl Fisher apparatus.
Montelukast acid (50 mg) from Example 2 was stored for 2 days at 40° C., 75% relative humidity. The water content was then determined to be 0.27 wt % using a Karl Fisher apparatus.

## CC(C)(O)c1ccccc1CC[C@@H](SCC1(CC(=O)O)CC1)c1cccc(/C=C/c2ccc3ccc(Cl)cc3n2)c1 [Montelukast acid, [R-(E)]-1-[[[1-[3-[2-(7-chloro-2-quinolinyl)ethenyl]phenyl]-3-[2-(1-hydroxy-1-methylethyl)phenyl]propyl]thio]methyl]cyclopropane acetic acid]
[1]
  hygroscopicity in comparison to sodium montelukast: reduced hygroscopicity
[2]; montelukast acid (50 mg) from Example 2, exposed to air overnight
  water content: 0.07 wt %
[2]; montelukast acid (50 mg) from Example 2, stored for 2 days at 40° C., 75% relative humidity
  water content: 0.27 wt %
